{"source": "patent US11618746B2", "about": "“Inhibitors of APOL1 and methods of using same” (Vertex Pharmaceuticals Incorporated, priority 2018, dated 2023)", "data": [{"molecular_target": "T1, G1 APOL1 (Homo sapiens, UniProt O14791, I384M/S342G)", "T1 construct": "expressed in transfected cells", "T1 sequence (O14791 28-398 S342G/I384M)": "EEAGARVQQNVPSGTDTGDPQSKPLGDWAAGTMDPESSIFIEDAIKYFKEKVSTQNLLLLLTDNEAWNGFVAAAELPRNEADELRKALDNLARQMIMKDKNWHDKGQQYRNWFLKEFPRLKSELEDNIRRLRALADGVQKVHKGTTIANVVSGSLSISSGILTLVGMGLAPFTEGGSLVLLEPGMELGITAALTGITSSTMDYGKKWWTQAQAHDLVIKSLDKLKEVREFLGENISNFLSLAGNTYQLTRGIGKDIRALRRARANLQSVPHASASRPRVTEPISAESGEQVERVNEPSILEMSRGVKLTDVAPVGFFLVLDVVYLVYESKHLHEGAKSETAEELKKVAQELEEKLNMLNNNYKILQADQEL", "assay": "Acute APOL1 Thallium Assay with inducible stable clones of HEK 293 cells", "type": "cell-based", "details": "HEK T-Rex tetracycline-inducible cells expressing G1 APOL1 (clone G1 DC3.25); inhibition of thallium flux rate", "source_text": "Acute APOL1 Thallium Assay with Inducible Stable Clones of HEK 293 Cells\nApolipoprotein L1 (APOL1) proteins form potassium-permeable cation pores in the plasma membrane. APOL1 risk variants (G1 and G2) induce greater potassium flux than G0 in HEK293 cells. This assay exploits the permeability of thallium (T1+) through ligand-gated potassium channels. The dye produces a bright fluorescent signal upon binding to T1+ conducted through potassium channels. The intensity of the T1+ signal is proportional to the number of potassium channels in the open state. Therefore, it provides a functional indication of the potassium channel activities. During the initial dye-loading step, the T1+ indicator dye as an acetoxymethyl (AM) ester enters the cells through passive diffusion. Cytoplasm esterases cleave the AM ester and relieve its active thallium-sensitive form. The cells are then stimulated with T1+. The increase of fluorescence in the assay represents the influx of T1+ into the cell specifically through the potassium channel (i.e. through APOL1 pores), providing a functional measurement of potassium channel/pore activity. The Thallium assay is conducted with cells expressing G1 APOL1.\nAPOL1 Cell Line (HEK T-Rex Stable Inducible Cell Line) • HEK T-Rex System • Tetracycline (Tet) inducible mammalian expression system. • Stably express the Tet repressor to regulate transcription. • Expression under the full-length CMV promoter. • APOL1 stable inducible cell line Clone used: G1 DC3.25\nTissue Culture Media • Cell Culture Medium • DMEM +10% FBS +P/S +5 μg/mL blasticidin+1 μg/mL puromycin. • 500 mL DMEM +55 mL FBS +5 mL P/S +280 μL blasticidin S HCl (10 mg/mL)+56 μL puromycin (10 mg/mL). • Cell Assay Medium • DMEM with 2% FBS+pen strep.\nInstruments and Equipment • Nuaire cell culture hood, Cat. No. 540-600 • 37° C./5% CO2 incubator link to robotic arm, Liconic: STX110 • Molecular Devices FLIPR^Tetra High throughput cellular screening system, Cat. No. FT0324, Molecular Devices • ThermoFisher MultiDrop 384, Cat. No. 5840300 • Biotek Microfill, Cat. No. ASF1000A-4145 • BioRad TC10 cell counter, Cat. No. 145-0010 Assay Procedures\nCells Scaled Up from Frozen Vials • APOL1 G1 3.25 (HEK293 T-Rex) frozen vials: 5 million cells per vial • Step 1, Day 1: Defrost frozen vial into T-225. • Step 2, Day 5: (when 85% confluent): Split one T-225 at 3×10^6 cells per flask. • Step 3, Day 8: Splits cells to set up for the assay plates as described below.\nT-Rex APOL1 HEK cells are split twice per week to keep the confluence state below 85% of the culture flask surface area. Cells can be kept until passage 25. • Cell Culture Medium • DMEM high glucose +10% FBS, +P/S, +5 μg/mL blasticidin, +1 μg/mL puromycin. • 500 mL DMEM, +55 mL FBS, +5 mL P/S, +280 μL blasicidin 10 mg/mL, +56 μL Puromycin 10 mg/mL. • Assay Media • Opti-MEM reduced serum medium from Invitrogen.\nPreparation of Cell Assay Plates • Culture medium is removed from the x cm^2 T-flask by aspiration. • The cell monolayer is rinsed with PBS 1× at room temperature. PBS is removed by aspiration. • Cells are trypsinized using Trypsin. • The flasks are incubated at room temperature for 2-3 minutes. • Complete DMEM medium is then added. Cell suspension is then transferred to a 50 mL Falcon polypropylene tube. • Cells are then counted using a Biorad TC10 cell counter and the required amount of cells are centrifuged at 1200 RPM for 5 minutes. Required amount is 1.3×10^6 cells/mL APOL1 T-Rex HEK cells. • The pellet is suspended in the assay medium. • Using the MultiDrop, add 20 μL to each well (corresponds to 26000 cells total per well) of a 384-well black, transparent, flat bottom Poly-D coated plate. • Tetracycline as prepared in the following section is added to the cells before plating to induce APOL1 expression. • Plates are left at room temperature for 20 to 30 minutes before incubation at 37° C. and 5% CO2. […]", "units": {"IC50": "nM"}, "values": [{"smiles": "O=C(CCc1c(-c2ccc(C(F)(F)F)cc2)[nH]c2ccccc12)N[C@@H]1C(=O)NC[C@H]1O", "note": "[Compound 123]", "IC50": "< 250"}, {"smiles": "Cc1ccc(-c2[nH]c3ccccc3c2CCC(=O)N[C@@H]2C(=O)NC[C@H]2O)c(F)c1", "note": "[Compound 122]", "IC50": "< 250"}, {"smiles": "O=C(CCc1c(-c2ccc(F)cc2)[nH]c2c(OC(F)F)cc(F)cc12)N[C@@H]1C(=O)NC[C@H]1O", "note": "[Compound 107]", "IC50": "< 250"}, {"smiles": "O=C(CCc1c(-c2ccc(Cl)cc2)[nH]c2ccccc12)N[C@@H]1C(=O)NC[C@H]1O", "note": "[Compound 128, 3-[2-(4-chlorophenyl)-1H-indol-3-yl]-N-[(3S,4R)-4-hydroxy-2-oxo-pyrrolidin-3-yl]propanamide]", "IC50": "< 250"}, {"smiles": "Cc1cc(-c2[nH]c3ccccc3c2CCC(=O)N[C@@H]2C(=O)NC[C@H]2O)ccc1F", "note": "[Compound 125]", "IC50": "< 250"}, {"smiles": "N#Cc1ccc(-c2[nH]c3ccccc3c2CCC(=O)N[C@@H]2C(=O)NC[C@H]2O)cc1", "note": "[Compound 116, 3-[2-(4-cyanophenyl)-1H-indol-3-yl]-N-[(3S,4R)-4-hydroxy-2-oxo-pyrrolidin-3-yl]propanamide]", "IC50": "< 250"}, {"smiles": "O=C(CCc1c(-c2ccc(F)cc2)[nH]c2c(F)c(F)ccc12)N[C@@H]1C(=O)NC[C@H]1O", "note": "[Compound 58]", "IC50": "< 250"}, {"smiles": "O=C(CCc1c(-c2ccccc2)[nH]c2c(C(F)(F)F)cccc12)N[C@@H]1C(=O)NC[C@H]1O", "note": "[Compound 112, N-[(3S,4R)-4-hydroxy-2-oxo-pyrrolidin-3-yl]-3-[2-phenyl-7-(trifluoromethyl)-1H-indol-3-yl]propanamide]", "IC50": "250 to 1000"}, {"smiles": "COc1ccc(-c2[nH]c3ccccc3c2CCC(=O)N[C@@H]2C(=O)NC[C@H]2O)cc1", "note": "[Compound 121]", "IC50": "< 250"}, {"smiles": "O=C(CCc1c(-c2ccc(F)cc2)[nH]c2c(Cl)cccc12)N[C@H]1CCNC1=O", "note": "[Compound 72]", "IC50": "< 250"}, {"smiles": "Cc1c(F)c(F)cc2c(CCC(=O)N[C@@H]3C(=O)NC[C@H]3O)c(-c3ccc(F)cc3)[nH]c12", "note": "[Compound 98, 3-[5,6-difluoro-2-(4-fluorophenyl)-7-methyl-1H-indol-3-yl]-N-[(3S,4R)-4-hydroxy-2-oxo-pyrrolidin-3-yl]propanamide]", "IC50": "< 250"}, {"smiles": "O=C(CCc1c(-c2ccccc2)[nH]c2cccc(F)c12)N[C@@H]1C(=O)NC[C@H]1O", "note": "[Compound 114, 3-(4-fluoro-2-phenyl-1H-indol-3-yl)-N-[(3S,4R)-4-hydroxy-2-oxo-pyrrolidin-3-yl]propanamide]", "IC50": "< 250"}, {"smiles": "O=C(CCc1c(-c2ccc(F)cc2)[nH]c2c(F)cc(Cl)cc12)N[C@@H]1C(=O)NC[C@H]1O", "note": "[Compound 30]", "IC50": "< 250"}, {"smiles": "N#Cc1cc(F)cc2c(CCC(=O)N[C@@H]3C(=O)NC[C@H]3O)c(-c3ccc(F)cc3)[nH]c12", "note": "[Compound 42]", "IC50": "< 250"}, {"smiles": "CC1(NC(=O)CCc2c(-c3ccc(F)cc3)[nH]c3c(F)cc(F)cc23)CCNC1=O", "note": "(racemic) [Compound 14]", "IC50": "250 to 1000"}, {"smiles": "O=C(CCc1c(-c2ccccc2)[nH]c2ccccc12)N[C@@H]1C(=O)NC[C@H]1O", "note": "[Compound 86]", "IC50": "< 250"}, {"smiles": "O=C(CCc1c(-c2ccc(OC(F)(F)F)cc2)[nH]c2ccccc12)N[C@@H]1C(=O)NC[C@H]1O", "note": "[Compound 118]", "IC50": "< 250"}, {"smiles": "O=C(CCc1c(-c2ccccc2)[nH]c2cc(F)c(F)cc12)N[C@@H]1C(=O)NC[C@H]1O", "note": "[Compound 82]", "IC50": "< 250"}, {"smiles": "O=C(CCc1c(-c2ccc(C(F)F)cc2)[nH]c2ccccc12)N[C@@H]1C(=O)NC[C@H]1O", "note": "[Compound 131, 3-[2-[4-(difluoromethyl)phenyl]-1H-indol-3-yl]-N-[(3S,4R)-4-hydroxy-2-oxo-pyrrolidin-3-yl]propanamide]", "IC50": "< 250"}, {"smiles": "N#Cc1ccc(-c2[nH]c3c(F)cc(F)cc3c2CCC(=O)N[C@H]2CCNC2=O)cc1", "note": "[Compound 20, 3-[2-(4-cyanophenyl)-5,7-difluoro-1H-indol-3-yl]-N-[(3S)-2-oxopyrrolidin-3-yl]propanamide]", "IC50": "< 250"}, {"smiles": "Cc1cc(F)c2[nH]c(-c3ccc(F)cc3)c(CCC(=O)N[C@@H]3C(=O)NC[C@H]3O)c2c1", "note": "[Compound 29]", "IC50": "< 250"}, {"smiles": "O=C(CCc1c(-c2ccccc2)[nH]c2ccc(F)cc12)N[C@H]1CCNC1=O", "note": "[Compound 52]", "IC50": "< 250"}, {"smiles": "O=C(CCc1c(-c2ccc(F)cc2)[nH]c2ccc(F)cc12)N[C@H]1CCNC1=O", "note": "[Compound 47]", "IC50": "< 250"}, {"smiles": "O=C(CCc1c(-c2ccccc2)[nH]c2c(F)c(F)ccc12)N[C@@H]1C(=O)NC[C@H]1O", "note": "[Compound 59]", "IC50": "< 250"}, {"smiles": "O=C(CCc1c(-c2ccc(F)cc2)[nH]c2c(Cl)cccc12)N[C@@H]1C(=O)NC[C@H]1O", "note": "[Compound 73]", "IC50": "< 250"}, {"smiles": "Cc1ccc(-c2[nH]c3ccccc3c2CCC(=O)N[C@@H]2C(=O)NC[C@H]2O)cc1", "note": "[Compound 124]", "IC50": "< 250"}, {"smiles": "O=C(CCc1c(-c2ccccc2)[nH]c2ccc(Cl)cc12)N[C@@H]1C(=O)NC[C@H]1O", "note": "[Compound 44, 3-(5-chloro-2-phenyl-1H-indol-3-yl)-N-[(3S,4R)-4-hydroxy-2-oxo-pyrrolidin-3-yl]propanamide]", "IC50": "< 250"}, {"smiles": "O=C(CCc1c(-c2ccccc2)[nH]c2c(F)cccc12)N[C@@H]1C(=O)NC[C@H]1O", "note": "[Compound 61]", "IC50": "< 250"}, {"smiles": "O=C(CCc1c(-c2ccc(F)cc2)[nH]c2c(F)cc(F)cc12)N[C@H]1C[C@@H](CO)NC1=O", "note": "[Compound 7]", "IC50": "> 1000"}, {"smiles": "O=C(CCc1c(-c2ccc(F)cc2)[nH]c2c(F)cc(F)cc12)N[C@@H]1CCNC1=O", "note": "[Compound 13]", "IC50": "250 to 1000"}, {"smiles": "O=C(CCc1c(-c2ccc(Cl)c(F)c2)[nH]c2ccccc12)N[C@@H]1C(=O)NC[C@H]1O", "note": "[Compound 120]", "IC50": "< 250"}, {"smiles": "Cc1cc(F)cc2c(CCC(=O)N[C@@H]3C(=O)NC[C@H]3O)c(-c3ccc(F)cc3)[nH]c12", "note": "[Compound 37]", "IC50": "< 250"}, {"smiles": "O=C(CCc1c(-c2ccc(F)cc2)[nH]c2c(F)ccc(F)c12)N[C@H]1CCNC1=O", "note": "[Compound 78]", "IC50": "> 1000"}, {"smiles": "O=C(CCc1c(-c2ccc(F)cc2)[nH]c2ccc(F)cc12)NC1CCNC1=O", "note": "(centres unmarked) [Compound 48]", "IC50": "< 250"}, {"smiles": "O=C1NC[C@@H](O)[C@@H]1NC(=O)C(F)(F)Cc1c(-c2ccc(F)cc2)[nH]c2c(F)cc(F)cc12", "note": "[Compound 95, 3-[5,7-difluoro-2-(4-fluorophenyl)-1H-indol-3-yl]-2,2-difluoro-N-[(3S,4R)-4-hydroxy-2-oxo-pyrrolidin-3-yl]propanamide]", "IC50": "< 250"}, {"smiles": "O=C(CCc1c(-c2ccccc2)[nH]c2c(F)c(F)c(F)cc12)N[C@@H]1C(=O)NC[C@H]1O", "note": "[Compound 80]", "IC50": "< 250"}, {"smiles": "O=C(CCc1c(-c2ccc(F)cc2)[nH]c2ccc(O)cc12)N[C@H]1CCNC1=O", "note": "[Compound 55, 3-[2-(4-fluorophenyl)-5-hydroxy-1H-indol-3-yl]-N-[(3S)-2-oxopyrrolidin-3-yl]propanamide]", "IC50": "> 1000"}, {"smiles": "O=C(CCc1c(-c2ccccc2)[nH]c2c(F)cc(F)cc12)N[C@@H]1C(=O)NC[C@H]1O", "note": "[Compound 26]", "IC50": "< 250"}]}]}
